This is an account of results in patent US12533389B2, “Glycopeptide antibiotic combination therapy” (The Trustees of Princeton University, priority 2021, dated 2026).

Converted amounts (≈) assume the structure as drawn. Like-named read-outs stand apart in the source and are kept apart here.

Assay [1] has as its system Clostridium difficile, Strain P8. Nature of the assay: Antimicrobial susceptibility profile of selected gut bacteria. It is filed as cell-based. The following applies: drug alone.
Assay [2] concerns C. difficile P8. The experiment in a line: Checkerboard agar dilution of vancomycin in combination with keratinicyclin B. It is filed as cell-based, Clostridium difficile. The procedure: Minimal inhibitory concentrations (MICs) were determined by the agar dilution method following the guidelines of the Clinical and Laboratory Standards Institute (CLSI). […] The effect of vancomycin in combination with keratinicyclin B against C. difficile P8 was assessed by the checkerboard agar dilution method. […] The antibiotic agar plates were prereduced in an anaerobic container prior to inoculation. […] To avoid the selection of an atypical variant, five colonies were suspended in prereduced Gifu anaerobic broth and grown to a density equivalent to a 0.5 McFarland standard (1-2×10^8 cfu/mL). Once the appropriate cell density was reached, the prereduced antibiotic agar plates were inoculated (10^5 cfu/spot). After incubating anaerobically at 37° C. for 48 h, the plates were inspected for bacterial growth. The MIC was defined as the lowest concentration of antibiotic leading to no growth, one colony, or a fine haze. […] The combination effect was defined as synergistic when ΣFIC≤0.5, additive when 0.5<ΣFIC≤1, indifferent when 1<ΣFIC≤2, and antagonistic when ΣFIC>2.
(In general: In agar dilution the substance is mixed into plates at graded concentrations.)

Assay [3] deals with Ruminococcus lactaris, Strain CC59_002D, HM-1057. The experiment in a line: Antimicrobial susceptibility profile of selected gut bacteria. It is filed as cell-based. Particulars: drug alone.
Assay [4] has as its system Nα,Nε-diacetyl-L-Lys-D-Ala-D-Ala tripeptide. Nature of the assay: Isothermal titration calorimetry (ITC) equilibrium binding of GPAs to the tripeptide ligand. The following applies: for ΔG: Experiment (ITC).
The subject of assay [5] is Clostridium perfringens, Strain WAL-14572. It is filed as cell-based. Particulars: drug alone.
A further assay concerns C. difficile. Particulars: cited from earlier work.
A further assay deals with selected gut bacteria. Nature of the assay: Antimicrobial susceptibility profile of selected gut bacteria. It is filed as cell-based.
Assay [6] has as its system C. difficile P8. The experiment in a line: MIC by agar dilution method (CLSI). It is filed as cell-based, Clostridium difficile. The procedure: Minimal inhibitory concentrations (MICs) were determined by the agar dilution method following the guidelines of the Clinical and Laboratory Standards Institute (CLSI). […] The effect of vancomycin in combination with keratinicyclin B against C. difficile P8 was assessed by the checkerboard agar dilution method. […] The antibiotic agar plates were prereduced in an anaerobic container prior to inoculation. […] To avoid the selection of an atypical variant, five colonies were suspended in prereduced Gifu anaerobic broth and grown to a density equivalent to a 0.5 McFarland standard (1-2×10^8 cfu/mL). […] After incubating anaerobically at 37° C. for 48 h, the plates were inspected for bacterial growth. The MIC was defined as the lowest concentration of antibiotic leading to no growth, one colony, or a fine haze.

The test system of assay [7] is diverse Gram-positive bacteria. Particulars: cited from earlier work.
The next assay has as its target tripeptide ligand. The following applies: cited from earlier work.
The subject of a further assay is C. difficile infection. The following applies: compared to metronidazole and vancomycin; cited from earlier work.
Where [8] appears, read: ITC, 25° C., 0.1 M sodium phosphate buffer, pH 7.

One may read the Kd as the free concentration of one partner at which half of the binding sites on the other are occupied at equilibrium, for simple one-to-one binding. As usually defined, the MIC is the smallest concentration in the dilution series that meets the test's criterion for growth inhibition.

Turning to `CO[C@H]1[C@H](C)O[C@@H](O[C@@H]2c3ccc(c(Cl)c3)Oc3cc4cc(c3O[C@@H]3O[C@H](CO)[C@@H](O)[C@H](O)[C@H]3O[C@H]3C[C@H](N)[C@@H](O)[C@H](C)O3)Oc3ccc(cc3)[C@H]3OC(=O)N[C@H]3C(=O)N[C@@H](Cc3ccccc3)C(=O)N[C@H]4C(=O)N[C@H]3C(=O)N[C@@H]2C(=O)N[C@H](C(=O)O)c2cc(O)cc(O[C@H]4O[C@H](CO)[C@@H](O)[C@H](O)[C@@H]4O)c2-c2cc3ccc2O)C[C@@H]1N` [keratinicyclin B], the growth inhibition entry in [1], in [3] and in [5] was “inhibiting the growth” each time. Further, the Checkerboard analysis result in the assay with C. difficile P8 [2] (keratinicyclin B 4 μg/mL + vancomycin 0 μg/mL) and in the assay with C. difficile P8 [2] (keratinicyclin B 8 μg/mL + vancomycin 0 μg/mL) was “I (I = indifference)” throughout. The “binding of the tripeptide” value in assay [4] (ITC, several concentrations tested) was “did not bind the tripeptide”. In addition, the dissociation constant (Kd) in assay [4] (ITC, estimated based on the sensitivity of the setup) is over 500 µM. Moreover, in the assay with C. difficile (previous bioactivity data), the “minimal inhibitory concentration (MIC)” value is 9.8 µM (≈ 16.1 µg/mL). Besides, the spectrum of activity entry with C. difficile (previously shown) is recorded as “narrow-spectrum activity against C. difficile”. For the same molecule, in the assay on selected gut bacteria (each drug alone, FIG. 5), the “spectrum of antibacterial activity” value is “narrower spectrum of antibiotic activity”. Further, in the assay on C. difficile P8 [6] (alone, anaerobic, 37° C., 48 h), the minimal inhibitory concentration (MIC) is 4 µg/mL.

In turn, `CN[C@H](CC(C)C)C(=O)N[C@H]1C(=O)N[C@@H](CC(N)=O)C(=O)N[C@H]2C(=O)N[C@H]3C(=O)N[C@H](C(=O)N[C@H](C(=O)O)c4cc(O)cc(O)c4-c4cc3ccc4O)[C@H](O)c3ccc(c(Cl)c3)Oc3cc2cc(c3O[C@@H]2O[C@H](CO)[C@@H](O)[C@H](O)[C@H]2O[C@H]2C[C@](C)(N)[C@H](O)[C@H](C)O2)Oc2ccc(cc2Cl)[C@H]1O` [vancomycin] registered a ΔG in [4] of -7.6 kcal/mol. In addition, in assay [4] (setting [8]), the affinity, expressed as Kd, was 2.7 ± 0.4 µM. In assay [4] (ITC, 25° C., pH 7), this molecule had a TΔS of -0.96 kcal/mol and a ΔH of -8.6 ± 0.5 kcal/mol. Besides, the “spectrum of antibacterial activity” value with selected gut bacteria is recorded as “broad-spectrum antibacterial activity against all tested Gram-positive bacteria”. Further, the minimal inhibitory concentration (MIC) in the assay with C. difficile P8 [6] (Clostridioides difficile, P8, 48 h) turned out to be 1 µg/mL.

In turn, keratinimicin A registered a ΔG in [4] of -7.9 kcal/mol. This molecule also came in with a TΔS in [4] (ITC, 25° C., pH 7) of 0.85 kcal/mol. Also, the Kd in [4] (ITC, 25° C., pH 7, unit inferred) worked out at 1.7 ± 0.3 µM. In [7], the spectrum of activity result is “broad-spectrum activity against diverse Gram-positive bacteria”.

keratinimicin C: binding in assay [4] (setting [8]) was put at a Kd of 2.8 ± 0.3 µM. In [4] (ITC, 25° C., pH 7), this molecule showed a TΔS of 0.2 kcal/mol and a ΔH of -7.4 ± 0.3 kcal/mol.

For `C[C@@H]1O[C@@H](O[C@H]2[C@H](Oc3c4cc5cc3Oc3ccc(cc3Cl)[C@@H](O)[C@@H](N)C(=O)N[C@@H](CC(N)=O)C(=O)N[C@H]5C(=O)N[C@H]3C(=O)N[C@H](C(=O)N[C@H](C(=O)O)c5cc(O)cc(O)c5-c5cc3ccc5O)[C@H](O)c3ccc(c(Cl)c3)O4)O[C@H](CO)[C@@H](O)[C@@H]2O)C[C@](C)(N)[C@@H]1O` [desleucyl-1], the dissociation constant (Kd) was about 20000 µM at tripeptide ligand (Experiment section of Table 2, reported value) and about 20000 µM at tripeptide ligand (reported experimental value). Further, the “binding of the tripeptide ligand” value in the assay on tripeptide ligand (N-terminal N-Me-D-Leu removed by Edman degradation) is “does not bind the tripeptide ligand”.

For the molecule `CCc1c(Cl)c(O)c(Cl)c(O)c1C(=O)O[C@H]1[C@H](O)[C@H](OC)[C@H](OC/C2=C\C=C\C[C@H](O)/C(C)=C/[C@H](CC)[C@@H](O[C@@H]3OC(C)(C)[C@@H](OC(=O)C(C)C)[C@H](O)[C@@H]3O)/C(C)=C/C(C)=C/C[C@@H]([C@@H](C)O)OC2=O)O[C@@H]1C` [fidaxomicin], the recurrence rates result in the assay on C. difficile infection is “halves recurrence rates”.
